Test results: patent publication US20030203963A1, “Antimicrobial agent” (priority 2001, published 2003)

What was measured:
[1] = system: Clostridium sporogenes Campden; assay: Well diffusion test; format: cell-based; conditions: 20 μl of 49.3 mg/ml (4.9%) APP sample E002012
Description: (§1) Seeded 10 ml agar plates of various test organisms were prepared, with inoculation of either 20 μl spore suspension or overnight broth. This gave an inoculum level of ca. 10^5-10^6 cfu/ml. After the plates had set, small wells were cut, and 20 μl of APP sample was loaded. Plates were incubated overnight at appropriate temperature and examined after 1-2 days (after which microbial growth is clearly visible) for zones of inhibition.

[2] = system: Pseudomonas fluorescens 327; assay: Well diffusion test; format: cell-based; conditions: 20 μl of 49.3 mg/ml (4.9%) APP sample E002012
Description: as §1

Lactobacillus sake A10 = assay: Well diffusion test; format: cell-based; conditions: 20 μl of 49.3 mg/ml (4.9%) APP sample E002012
Description: as §1

Micrococcus luteus = assay: Well diffusion test; format: cell-based; conditions: 20 μl of 49.3 mg/ml (4.9%) APP sample E002012
Description: as §1

Bacillus cereus 204 = assay: Well diffusion test; format: cell-based; conditions: 20 μl of 49.3 mg/ml (4.9%) APP sample E002012
Description: as §1

[3] = system: Saccharomyces carlsbergensis CRA6413; assay: Well diffusion test; format: cell-based; conditions: 20 μl of 49.3 mg/ml (4.9%) APP sample E002012
Description: as §1

[4] = system: Listeria monocytogenes S23; assay: Well diffusion test; format: cell-based; conditions: 20 μl of 49.3 mg/ml (4.9%) APP sample E002012
Description: as §1

[5] = system: Brochothrix thermosphacta CRA7883; assay: Well diffusion test; format: cell-based; conditions: 20 μl of 49.3 mg/ml (4.9%) APP sample E002012
Description: as §1

[6] = system: Cl. sporogenes (strains 1.221; Campden; ABC20; 4.440); assay: Sensitivity testing for Clostridium species in cooked meat medium; format: cell-based, Clostridium sporogenes; conditions: highest level tested 2000 ppm APP20010215, anaerobically at 37° C.
Description: Stock solutions of APP215 (0.5, 1 and 2%) were prepared and filter-sterilised. Cooked meat medium (CMM, Oxoid) was prepared by distributing 1 g of the medium to individual test tubes, which were then filled with 8.9 ml water. After autoclaving 100 μl of the APP stock solutions were added, to give final concentrations of 0, 500, […] and 2000 ppm APP. The tests were inoculated with […] of Clostridium spores, to give an inoculum level of ca. 10 cfu/ml. The tubes were overlaid with 3 ml of 2% agar to maintain anaerobicity. The tests were incubated at 37° C., and examined daily for signs of growth (turbidity, gas production).

Lb. sake A10 = assay: Test in cooked sausage meat slurry; format: cell-based, Lactobacillus sake; conditions: for Effect on growth: cooked sausage meat slurry at 8° C., pH 6.2, TSM010605
Excerpt: 500 g of bologna sausage meat mixture was mixed with 500 g Brain Heart Infusion broth (BHIB) to make a homogeneous slurry. The bologna sausage meat mix comprised (g per kg): lean beef 320; lean pork 202; lard 250; water 40; glucose 5; starch 155; spice mix 3.75; sodium glutamate 0.5; sodium erythorbate 0.545; sodium di-phosphate 3; NaCl 20; sodium nitrite 0.15. 200 g samples of the meat slurry were autoclaved. While the meat was still warm it was re-mixed thoroughly. When the meat had cooled it was inoculated with 2 ml of 10^5 cfu/ml spore or cell suspension, and re-mixed again. Each inoculated meat sample was divided into 3×50 g samples, and 1 ml of either SDW, 2.5% or 5% APP solution (batch number APP 20010215) was added to prepare meat samples containing 0, 500 and 1000 ppm APP. The meat slurry was again shaken thoroughly to ensure even mixing, an initial viable count was taken and the samples incubated at 8° C. Samples were taken at twice-weekly intervals. The pH of the sausage meat slurry was 6.2.

[7] = system: S. carisbergensis CRA6413; assay: Bioscreen growth inhibition test; format: cell-based, Saccharomyces carlsbergensis; conditions: APP 213, BS010420, 72 h/25° C.
Description: For broth cultures and Bioscreen testing most bacteria were grown in Brain Heart Infusion (BHI, Oxoid, pH 7.4). Lactobacillus sake A10 was grown in de Man, Rogosa, Sharpe medium ([…], Oxoid). Yeasts were grown in Sabouraud Liquid medium (SLM, Oxoid). Most bacteria were cultured at 30° C. Lactic acid bacteria were grown on solid medium in enriched CO2 atmosphere. Clostridium species were grown in Reinforced Clostridial Medium (RCM) at 37° C. anaerobically. Brochothrix thermosphacta fungi and yeasts were grown at 25° C. Fungi were cultured on Malt Extract Agar (MEA, Oxoid).
An automated Microbiology Reader Bioscreen C was used to measure growth curves of the strains in the presence and absence of APP. The Bioscreen C measures the development of turbidity (i.e. growth) kinetically by vertical photometry in 200 wells of a honeycomb microtitre plate, simultaneously. The system consists of a Bioscreen C analyser, which is an incubator and measurement unit, integrated with a PC, software (BioLink v 5.30), printer and a ‘Honeycomb 2’ cuvette multiwell plate. Growth curve data can be analysed within the BioLink software or exported to programs such as Excel.
Broth culture media were dispensed in 270 μl volumes into the wells as directed. […] (depending on the micro-organism under investigation) with readings taken every 20 minutes after the trays were shaken. […]

## O=C1CC(CO)OC=C1O (centres unmarked) [APP, Ascopyrone P]
[1]
  Sensitivity in well diffusion (zones of inhibition): sensitive
[2]
  Sensitivity in well diffusion (zones of inhibition): sensitive
Lactobacillus sake A10
  Sensitivity in well diffusion (zones of inhibition): sensitive
Micrococcus luteus
  Sensitivity in well diffusion (zones of inhibition): sensitive
Bacillus cereus 204
  Sensitivity in well diffusion (zones of inhibition): sensitive
[3]
  Sensitivity in well diffusion (zones of inhibition): sensitive
[4]
  Sensitivity in well diffusion (zones of inhibition): sensitive
[5]
  Sensitivity in well diffusion (zones of inhibition): sensitive
[6]
  Growth inhibition: No growth inhibition
Lb. sake A10; 500 ppm
  Effect on growth: No effect with 500 and 1000 ppm
Lb. sake A10; 1000 ppm
  Effect on growth: No effect with 500 and 1000 ppm
Lb. sake A10; Cooked sausage meat slurry at 8° C. pH 6.2, (1000)
  No inhibition (effect on growth of target organism by APP): Lb. sake (1000)
[7]
  APP level causing significant inhibition: Enhanced growth
  APP level causing total inhibition: >4000
